Data published in patent publication US8691255B2, “Method of producing high alcohol content foaming compositions with silicone-based surfactants” (Deb Worldwide Healthcare Inc., priority 2005, dated 2014).

Test: Foam evaluation of the prepared solutions: foam produced or not, and foam description
Type: physicochemical
Details: alone, 40% ethanol, 3% CAPB; compared with 60% v/v ethanol and less than 1.0% silicone-based surfactants
Experimental: Examples 1 through 12 were prepared to illustrate the ability to produce alcohol-based disinfecting formulations which can be dispensed as foams using different surfactants and a solution of water and 50% ethanol. Examples 13 through 16 illustrate increasing concentrations of a silicone-based surfactant to produce foam with 40% ethanol. Examples 17 through 32 show increasing concentrations of ethanol with different silicone-based surfactants to produce foam. Examples 33 through 36 illustrate increasing concentrations of a silicone-based surfactant to produce acceptable foam at 62% ethanol. Examples 37 through 52 illustrate the ability to produce foam using different surfactants and a solution of 70% v/v Isopropanol. All parts and percentages are expressed by weight unless otherwise indicated.
The following examples were intended to evaluate the foaming ability of different groups of Silicon surfactants with different combinations of ethanol, n-propyl alcohol and Isopropyl alcohol. They were also designed to assess the effect in the after feel as well as in the foam quality of some emollients and humectants, lipids, and other cosmetic type desired ingredients to be used with a leave-on hand sanitizer product. […]
The solutions prepared, were evaluated as to whether foam was produced or not and if so, then the foam produced was described as follows: […]

- foam results: unable to produce as good results
Substance: Cocamidopropyl betaine
